Consider twelve compounds from US5494897A, “Endothelin antagonistic peptide” (Banyu Pharmaceutical Co., Ltd., priority 1993, dated 1996).

Assay [1] concerns the target T1, ETB receptor (Sus scrofa, UniProt P35463).
T1 construct: ETB receptors of porcine cerebellum membrane suspension used in the present experiments; from tissue; host or cells: porcine cerebellum membrane preparation
T1 sequence (P35463 27-443): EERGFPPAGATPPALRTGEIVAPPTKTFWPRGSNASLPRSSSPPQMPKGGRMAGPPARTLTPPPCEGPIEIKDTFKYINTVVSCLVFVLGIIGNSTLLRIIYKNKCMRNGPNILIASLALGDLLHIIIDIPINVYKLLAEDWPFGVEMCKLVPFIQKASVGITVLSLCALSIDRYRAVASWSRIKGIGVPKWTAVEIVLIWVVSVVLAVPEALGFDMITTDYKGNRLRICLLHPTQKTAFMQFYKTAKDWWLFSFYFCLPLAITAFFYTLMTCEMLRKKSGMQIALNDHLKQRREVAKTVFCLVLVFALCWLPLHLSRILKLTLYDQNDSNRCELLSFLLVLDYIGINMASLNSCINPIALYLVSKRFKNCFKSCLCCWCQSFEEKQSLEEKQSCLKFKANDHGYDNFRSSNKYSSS
The assay can be described thus: Endothelin binding inhibition test (125I-endothelin-1, porcine cerebellum membrane). The note with it: 1.1 μM test compound; porcine cerebellum membrane (ETB receptors). As to the method:
The cerebellum of porcine was homogenized in a buffer solution of 10 mM MOPS, pH 7.4, at 4° C. by a polytron. To the homogenate, sucrose was added to a concentration of 20%, and the mixture was centrifuged at 1,000×g for 15 minutes, and the supernatant was further centrifuged at 10,000×g for 15 minutes. The supernatant thereof was further centrifuged at 90,000×g for 40 minutes. The membrane precipitate thereby obtained was suspended in a buffer solution of 5 mM HEPES/Tris, pH 7.4, at a concentration of 3.3 mg/ml. Then, 16 μl of this membrane suspension was added to 340 μl of 50 mM tris/HCl buffer, pH 7.4, containing […] calcium chloride, 10 μM magnesium chloride, 0.1 mM PMSF, 1 μM pepstatin A, 2 μM leupeptin, 1 mM 1,10-phenanthroline and 0.1% bovine serum albumin. […] These mixtures were incubated at 25° C. for 4 hours, then subjected to filtration on a glass filter GF/C and then washed with 5 mM HEPES/Tris, pH 7.4, containing 0.3% bovine serum albumin. […] [formula] Each test was performed in triplicate.
The test compounds are indicated by compound Nos.

Assay [2] deals with human Girardi heart cells. The assay can be described thus: Inhibition of endothelin-1-induced increase in intracellular calcium concentration (fura-2). The class given is cell-based. The note with it: for inhibition of ET-1-induced increase in intracellular calcium concentration: 1.1 μM compound given 5 minutes before 100 nM ET-1, fura-2-loaded cells; for effect on the intracellular calcium concentration itself: compound alone, fura-2-loaded human Girardi heart cells. The procedure:
Inhibitory activities of test compounds against endothelin-1-induced increase in intracellular calcium concentration of human Girardi heart cells
Antagonism of test compounds to endothelin-1-induced increase in intracellular calcium concentration was evaluated in human Girardi heart cells (Dainippon Seiyaku Co., Ltd.).
Cultured human Girardi heart cells in Flask were harvested using 0.25% trypsin and 0.02% EDTA. The collected cells were washed with Dulbecco's modification eagle medium containing 20 mM Hepes and 0.3% BSA (pH 7.4, D medium). Then the cells were suspended in D medium and incubated with 2 μM of fura-2 acetoxymethyl ester at 37° C. for 30 minutes. The cell suspensions were diluted with a 10-fold volume of D medium and incubated for 20 minutes. The fura-2-loaded cells were collected by centrifugation and resuspended in Krebs-Henseleit Hepes buffer (pH 7.4). The resultant suspension in a cuvette was continuously stirred at 37° C. throughout the following measurement process. Each test compound or vehicle was given 5 minutes before the addition of 100 nM ET-1, and fluorescence intensity at emission wavelength of 510 nm and excitation wavelength of 340 and 380 nm was monitored with a JASCO CAF-100 spectrofluorometer (Japan), and [Ca^2+ ]i values were calculated according to the reported method (G. Grynkiewicz et al., J. Biol. Chem. 260, 3440-3450 (1985)).
(In general: Calcium flux is commonly read through the fluorescence of an indicator in the cells.)

Assay [3] concerns the target T2, ETA receptors (Sus scrofa, UniProt Q29010).
T2 construct: porcine aorta membrane suspension containing a large amount of ETA receptors; from tissue; host or cells: porcine aorta membrane suspension
T2 sequence (Q29010 21-427): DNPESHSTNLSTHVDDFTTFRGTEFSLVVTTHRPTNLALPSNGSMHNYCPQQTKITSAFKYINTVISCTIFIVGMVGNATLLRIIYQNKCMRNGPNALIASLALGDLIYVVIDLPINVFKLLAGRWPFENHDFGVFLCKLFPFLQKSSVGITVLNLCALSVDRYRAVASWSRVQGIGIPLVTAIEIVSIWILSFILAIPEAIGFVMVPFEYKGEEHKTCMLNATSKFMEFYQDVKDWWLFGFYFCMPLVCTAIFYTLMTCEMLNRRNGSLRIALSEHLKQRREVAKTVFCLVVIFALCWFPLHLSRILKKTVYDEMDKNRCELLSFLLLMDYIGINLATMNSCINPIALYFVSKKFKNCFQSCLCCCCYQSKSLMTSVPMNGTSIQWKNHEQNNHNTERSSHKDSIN
The assay can be described thus: 125I-ET-1 binding inhibition to porcine aorta membrane suspension. To be noted: 1.1 μM; porcine aorta membrane suspension containing a large amount of ETA receptors.

Numbered stars: 1 amine (or outer) side, 2 acyl side, 3 side chain; on linkers, the order of the positions; unused ones are H or OH. Square brackets hold non-standard residues; d marks the D form. Peptide text beside a SMILES is read from it. X1 = N#Cc1[nH]c2ccccc2c1C[C@@H](N[*:1])C(=O)[*:2]; dPen = CC(C)(S)[C@@H](N)C(=O)O

For orientation: inhibition means how much of the control response was suppressed. A high value points to a response far below the control. In assay [1], `CCC[C@@H](NC(=O)[C@@H](Cc1c(C#N)[nH]c2ccccc12)NC(=O)[C@@H](NC(=O)N1C(C)CCCC1C)C1CCCC1)C(=O)NC` (stereo partly drawn) [Compound 9] showed an inhibition at 1.1 µM of 100%.
Regarding `CCCC[C@@H](NC(=O)[C@@H](Cc1c(C#N)[nH]c2ccccc12)NC(=O)[C@@H](NC(=O)N1C(C)CCCC1C)C(C)C)C(=O)O` (stereo partly drawn) [Compound 1], 1.1 µM produced 96% inhibition in assay [1]. In assay [2], the “inhibition of ET-1-induced increase in intracellular calcium concentration” value came out at 94% and the “effect on the intracellular calcium concentration itself” value is recorded as “no effect”.
In assay [1], `CCC[C@@H](NC(=O)[C@@H](Cc1c(C#N)[nH]c2ccccc12)NC(=O)[C@@H](NC(=O)N1C(C)CCCC1C)C1CCCC1)C(=O)O` (stereo partly drawn) [Compound 8] returned an inhibition at 1.1 µM of 96%.
With `CCCC[C@@H](NC(=O)[C@@H](Cc1c(C#N)[nH]c2ccccc12)NC(=O)[C@H](CC(C)C)NC(=O)N1C(C)CCCC1C)C(=O)O` (stereo partly drawn) [Compound 2], the inhibition at 1.1 µM in assay [1] stood at 99%.
The same measure, in the same setting: the figure for `COC(=O)C[C@H]1NC(=O)[C@@H](Cc2c(C#N)[nH]c3ccccc23)NC(=O)[C@H](CC(C)C)NC(=O)[C@@H](C(C)(C)SC)NC(=O)[C@@H]2CCCN2C1=O` [Compound 10] (cyclo(L[X1][dD](OMe)P[dPen](Me))) is 65%.
The compound “cyclo(-DTrp-DCys(O3 Na)-Pro-DVal-Leu-) [compound 5, reference compound]” gave a 125I-endothelin-1 binding inhibition in assay [1] of 0.6%. In assay [3], the 125I-ET-1 binding inhibition came out at 85%.
In assay [1], `CCC[C@@H](NC(=O)[C@@H](Cc1c(C#N)[nH]c2ccccc12)NC(=O)[C@@H](NC(=O)N1C(C)CCCC1C)C1CCCC1)C(=O)OC` (stereo partly drawn) [Compound 7] gave an inhibition at 1.1 µM of 96%.
Same read-out and setting: the figure for `CCCC[C@@H](NC(=O)[C@@H](Cc1c(C#N)[nH]c2ccccc12)NC(=O)[C@H](CC(C)(C)C)NC(=O)N1C(C)CCCC1C)C(=O)OC` (stereo partly drawn) [Compound 3] is 99%.
On the same count and under the same terms, the figure for `CCCC[C@@H](NC(=O)[C@@H](Cc1c(C#N)[nH]c2ccccc12)NC(=O)[C@H](CC(C)(C)C)NC(=O)N1C(C)CCCC1C)C(=O)O` (stereo partly drawn) [Compound 4] is 100%.
Compound `CC(C)C[C@@H]1NC(=O)[C@@H](C(C)C)NC(=O)[C@@H]2CCCN2C(=O)[C@@H](CC(=O)O)NC(=O)[C@@H](Cc2c(C#N)[nH]c3ccccc23)NC1=O` [Compound 12] (cyclo(L[X1][dD]P[dV])) returned an inhibition at 1.1 µM in assay [1] of 78%.
Compound `CSC(C)(C)[C@H]1NC(=O)[C@@H]2CCCN2C(=O)[C@@H](CC(=O)O)NC(=O)[C@@H](Cc2c(C#N)[nH]c3ccccc23)NC(=O)[C@H](CC(C)C)NC1=O` [Compound 11] (cyclo(L[X1][dD]P[dPen](Me))) had an inhibition at 1.1 µM in assay [1] of 97%. Moreover, in assay [2], the “inhibition of ET-1-induced increase in intracellular calcium concentration” value is given as 69% and the “effect on the intracellular calcium concentration itself” value is “no effect”.
For “cyclo(-DTrp-DAsp-Pro-DThg-Leu-) [compound 6, reference compound]”, the 125I-endothelin-1 binding inhibition in assay [1] is recorded as 11%. This compound also gave a 125I-ET-1 binding inhibition in assay [3] of 82%.
